According to paper PMC10800876, “Evaluation of proline-rich antimicrobial peptides as potential lead structures for novel antimycotics against Cryptococcus neoformans” (Frontiers in Microbiology, 2024):
Converted amounts (≈) assume the structure as drawn. Where two headings read alike, the source gives them in different places. Residues, ends and D or L forms follow the SMILES beside them. *: point of attachment. Orn(α-tetramethylguanidino) = CN(C)C(=N[C@@H](CCCN)C(=O)*)N(C)C

What was measured:
[1] = system: C. neoformans H99; test: Antifungal activity assay (CFU on SAB agar); assay type: cell-based, Cryptococcus neoformans; conditions: treatment 3 h, 30 °C, mean ± SD, n = 4; for cell count C. neoformans H99, 24 h: CFU counted after 24 h; for cell count C. neoformans H99, 48 h: CFU counted after 48 h
[2] = system: C. neoformans 1841 (serotype D); test: microbe, parasite or virus in culture; conditions: Cryptococcus neoformans
[3] = system: C. neoformans 1841; test: Antifungal activity assay (CFU on SAB agar); assay type: cell-based, Cryptococcus neoformans; conditions: treatment 3 h, 30 °C, mean ± SD, n = 4; for cell count C. neoformans 1841, 24 h: CFU counted after 24 h; for cell count C. neoformans 1841, 48 h: CFU counted after 48 h
[4] = system: HepG2 and HEK293 cell lines; test: Cytotoxicity (MTT), for both cell lines; assay type: cell-based, human; conditions: 125 mg/L, 24 h
Method: Human embryonic kidney (HEK293) and human hepatoma (HepG2) cells were cultured in Dulbecco’s modified Eagle’s/Ham’s F-12 medium (DMEM/F-12) containing 10% (v/v) fetal bovine serum and 1% (v/v) penicillin/streptomycin. Cells (20,000 in 200 μL per well) were seeded into a 96-well plate (polystyrene F-bottom, Greiner Bio-One GmbH) and incubated for 24 h (37°C, 5% CO2). Cells were washed with PBS (100 μL) and peptide solutions (0.6 g/L in DMEM/F-12) were added. The positive control was a dilution series from 12 to 1.5% (v/v) DMSO and the negative control was 12% (v/v) PBS. After incubation (37°C, 24 h, 5% CO2), the supernatant was discarded, fresh medium (90 μL/well) and MTT (10 μL/well, 5 g/L in PBS) were added, and the plate was incubated for 4 h (37°C, 5% CO2). A solution (100 μL) of sodium dodecyl sulfate (10% (v/v)) in hydrochloric acid (10 mmol/L) was added and the plate was incubated again for 24 h (37°C, 5% CO2). Absorbance was recorded at 570 nm relative to the reference at 650 nm ([…] ™ microplate reader). All samples were corrected for the background absorbance of the medium. Relative cell viability was calculated as the ratio of absorbances recorded for treated and untreated cells ([Kolano et al., 2021]; [Brakel et al., 2022a],[b]).

[5] = system: C. neoformans H99 (serotype A); test: microbe, parasite or virus in culture; conditions: Cryptococcus neoformans
[6] = system: C. neoformans KN99α (serotype A, mating type MATα); test: microbe, parasite or virus in culture; conditions: Cryptococcus neoformans
[7] = system: C. neoformans strains 1841, H99, and KN99α; test: Broth microdilution assay (MIC); assay type: cell-based, Cryptococcus neoformans
[8] = system: C. neoformans KN99α; test: Antifungal activity assay (CFU on SAB agar); assay type: cell-based, Cryptococcus neoformans; conditions: treatment 3 h, 30 °C, mean ± SD, n = 4; for cell count C. neoformans KN99α, 24 h: CFU counted after 24 h; for cell count C. neoformans KN99α, 48 h: CFU counted after 48 h
[9] = system: C. neoformans 1841 (serotype D)
[10] = system: C. neoformans KN99α (serotype A, mating type MATα)
[11] = system: C. neoformans 1841; test: Time-kill assay; assay type: cell-based, Cryptococcus neoformans; conditions: 2.5 μmol/L, 30°C, up to 24 h
Method: The kinetic effects of the antifungal activity were determined by diluting overnight cultures to 5 × 10^4 CFU/mL with 50% SAB in phosphate buffer. Aqueous peptide solutions (20 μL) were added to the cell suspension (80 μL) to give a final peptide concentration of 2.5 μmol/L. Samples were incubated at 30°C on an orbital shaker (750 rpm, Titramax 1,000, Heidolph Instruments GmbH & Co. KG) for 24 h. Before incubation (0 min) and after 45 min, 90 min, 3 h, 6 h, and 24 h incubation, aliquots (10 μL) of samples were taken and diluted with phosphate buffer (10 mmol/L, pH 7.5) to observe countable cell colonies. Aliquots (100 μL) of the diluted cell suspensions were plated on SAB agar plates. Plates were incubated at 30°C and colonies were counted after 24 h.

[12] = system: C. neoformans 1841; test: Scanning electron microscopy, damaged cells; assay type: cell-based, Cryptococcus neoformans; conditions: 200 μmol/L, 10^8 CFU/mL, 3 h, 30°C
Method: Overnight cultures of C. neoformans 1841 were prepared as described and adjusted with 50% SAB in phosphate buffer to reach 1 × 10^8 CFU/mL. Aqueous peptide solutions (20 μL) were added to the cell suspension (80 μL) to give a final peptide concentration of 200 μmol/L. Samples were incubated at 30°C on an orbital shaker (750 rpm) for 3 h. Samples were centrifuged (2,000 × g, 10 min, 4°C, Microfuge 22R, Beckmann Coulter), cell pellets were washed with ice-cold phosphate-buffered saline (PBS, 100 μL) and centrifuged again. Cell pellets were re-suspended in PBS (25 μL) and adhered overnight in humid atmosphere to glass coverslips (Borosilicate Glass, VWR International GmbH) previously coated with 0.001% poly-L-lysine (in case of Critical-Point Drying). Cells were fixed (2% glutaraldehyde, 2% paraformaldehyde, in PBS) for 60 min and afterwards stained with 1% OsO4 in PBS for 60 min. The cells were gradually dehydrated in ethanol series (30, 50, 70, 85, 90, 96% (once), and 100% (thrice) for 10 min. The coverslips were critical-point-dried (Baltec CPD 030, BAL-TEC GmbH, Schalksmühle, Germany) or air-dried after incubation with HMDS (3 min, RT) and sputter coated with 20 nm gold/palladium (Baltec MED 020, BAL-TEC GmbH). Cells were visualized using the SEM secondary electron detector (Zeiss EVO LS 15 LaB6, Carl Zeiss Microscopy Deutschland GmbH).
GraphPad Prism 10.0.3 software was used for statistical analysis of the recorded data. A Dunnett’s multiple comparisons test (Ordinary-one-way ANOVA) was performed.

[13] = system: C. neoformans strains 1841, H99, and KN99α; test: Antifungal activity assay (CFU); assay type: cell-based, Cryptococcus neoformans; conditions: 2.5 μmol/L, 3 h incubation
[14] = system: C. neoformans H99 (serotype A)
[15] = broth microdilution, 50% SAB in phosphate buffer, 30°C, read after 24 h, n = 6
[16] = broth microdilution, 50% SAB in phosphate buffer, 30°C, read after 48 h, n = 6

| Compound | cell count C. neoformans H99, 24 h ([1]; 0.25 µmol/L) | cell count C. neoformans H99, 48 h ([1]; 0.25 µmol/L) | cell count C. neoformans H99, 24 h ([1]; 2.5 µmol/L) | cell count C. neoformans H99, 48 h ([1]; 2.5 µmol/L) | cell count C. neoformans H99, 24 h ([1]; 25 µmol/L) | cell count C. neoformans H99, 48 h ([1]; 25 µmol/L) | cell count C. neoformans 1841, 24 h ([3]; 0.25 µmol/L) | cell count C. neoformans 1841, 48 h ([3]; 0.25 µmol/L) | cell count C. neoformans 1841, 24 h ([3]; 2.5 µmol/L) | cell count C. neoformans 1841, 48 h ([3]; 2.5 µmol/L) | cell count C. neoformans 1841, 24 h ([3]; 25 µmol/L) | cell count C. neoformans 1841, 48 h ([3]; 25 µmol/L) | cell count C. neoformans KN99α, 24 h ([8]; 0.25 µmol/L) | cell count C. neoformans KN99α, 48 h ([8]; 0.25 µmol/L) | cell count C. neoformans KN99α, 24 h ([8]; 2.5 µmol/L) | cell count C. neoformans KN99α, 48 h ([8]; 2.5 µmol/L) | cell count C. neoformans KN99α, 24 h ([8]; 25 µmol/L) | cell count C. neoformans KN99α, 48 h ([8]; 25 µmol/L) | further results |
| --- | --- | --- | --- | --- | --- | --- | --- | --- | --- | --- | --- | --- | --- | --- | --- | --- | --- | --- | --- |
| C[C@@H]1[C@H](O)[C@@H](C)/C=C/C=C/C=C/C=C/C=C/C=C/C=C/[C@H](O[C@@H]2O[C@H](C)[C@@H](O)[C@H](N)[C@@H]2O)C[C@@H]2O[C@](O)(C[C@@H](O)C[C@@H](O)[C@H](O)CC[C@@H](O)C[C@@H](O)CC(=O)O[C@H]1C)C[C@H](O)[C@H]2C(=O)O [Amphotericin B, reference compound] | 0.9 ± 0.7 x 10^4 CFU/mL | 1.1 ± 0.7 x 10^4 CFU/mL | 0.0 ± 0.0 x 10^4 CFU/mL | 0.0 ± 0.0 x 10^4 CFU/mL | 0.0 ± 0.0 x 10^4 CFU/mL | 0.0 ± 0.0 x 10^4 CFU/mL | 1.4 ± 0.3 x 10^4 CFU/mL | 1.4 ± 0.3 x 10^4 CFU/mL | 0.0 ± 0.0 x 10^4 CFU/mL | 0.0 ± 0.0 x 10^4 CFU/mL | 0.0 ± 0.0 x 10^4 CFU/mL | 0.0 ± 0.0 x 10^4 CFU/mL | 2.4 ± 1.5 x 10^4 CFU/mL | 2.5 ± 1.7 x 10^4 CFU/mL | 0.1 ± 0.1 x 10^4 CFU/mL | 0.1 ± 0.1 x 10^4 CFU/mL | 0.0 ± 0.0 x 10^4 CFU/mL | 0.0 ± 0.0 x 10^4 CFU/mL | MIC ([2]; 24 h, pH 7.5, read-out: MIC (μmol/L) 1841 24 h): 0.06 to 0.23 µmol/L; MIC ([2]; 24 h, read-out: MIC (mg/L) 1841 24 h): 0.06 to 0.12 mg/L; MIC ([2]; 48 h, pH 7.5, read-out: MIC (μmol/L) 1841 48 h): 0.13 µmol/L; MIC ([2]; 48 h, read-out: MIC (mg/L) 1841 48 h): 0.12 mg/L; cytotoxicity [4]: strong cytotoxicity; MIC ([5]; 24 h, read-out: MIC (mg/L) H99 24 h): < 0.02 mg/L; MIC ([5]; 24 h, read-out: MIC (μmol/L) H99 24 h): < 0.02 µmol/L; MIC ([5]; 48 h, read-out: MIC (mg/L) H99 48 h): 0.04 to 0.08 mg/L; MIC ([5]; 48 h, read-out: MIC (μmol/L) H99 48 h): 0.04 to 0.09 µmol/L; MIC ([6]; 24 h, read-out: MIC (mg/L) KN99α 24 h): 0.08 mg/L; MIC ([6]; 24 h, read-out: MIC (μmol/L) KN99α 24 h): 0.09 µmol/L; MIC ([6]; 48 h, read-out: MIC (mg/L) KN99α 48 h): 0.16 mg/L; MIC ([6]; 48 h, read-out: MIC (μmol/L) KN99α 48 h): 0.17 µmol/L; MIC [7]: < 0.2 µg/mL; MIC ([7]; Cryptococcus neoformans, read-out: MIC): < 0.22 µM |
| CC[C@H](C)[C@H](NC(=O)[C@H](Cc1ccc(O)cc1)NC(=O)[C@@H](NC(=O)[C@@H]1CCCN1C(=O)[C@H](CCCNC(=N)N)NC(=O)[C@H](CC(N)=O)NC(=O)[C@H](CC(N)=O)NC(=O)[C@H](CCCN)N=C(N(C)C)N(C)C)C(C)C)C(=O)N1CCC[C@H]1C(=O)N[C@@H](CCCNC(=N)N)C(=O)N1CCC[C@H]1C(=O)N[C@@H](CCCNC(=N)N)C(=O)N1CCC[C@H]1C(=O)N1CCC[C@H]1C(=O)N[C@@H](Cc1c[nH]cn1)C(=O)N1CCC[C@H]1C(=O)N[C@@H](CCCNC(=N)N)C(=O)N[C@@H](CC(C)C)C(N)=O [Api88] ({Orn(α-tetramethylguanidino)}-NNRPVYIPRPRPPHPRL-NH2; N-terminus and C-terminus assumed) | 2.7 ± 0.4 x 10^4 CFU/mL | 2.8 ± 0.5 x 10^4 CFU/mL | 3.0 ± 0.2 x 10^4 CFU/mL | 3.3 ± 0.3 x 10^4 CFU/mL | 1.7 ± 0.2 x 10^4 CFU/mL | 2.0 ± 0.4 x 10^4 CFU/mL | 2.4 ± 0.1 x 10^4 CFU/mL | 2.4 ± 0.1 x 10^4 CFU/mL | 1.0 ± 0.1 x 10^4 CFU/mL | 1.0 ± 0.1 x 10^4 CFU/mL | 0.1 ± 0.0 x 10^4 CFU/mL | 0.1 ± 0.0 x 10^4 CFU/mL | 3.0 ± 0.7 x 10^4 CFU/mL | 3.1 ± 0.8 x 10^4 CFU/mL | 3.0 ± 0.6 x 10^4 CFU/mL | 3.1 ± 0.7 x 10^4 CFU/mL | 1.5 ± 0.2 x 10^4 CFU/mL | 1.6 ± 0.3 x 10^4 CFU/mL | MIC (μmol/L) 1841 48 h ([9]; 1841 (serotype D, 48 h, pH 7.5)): 7.0 µmol/L (≈ 16 µg/mL); MIC (mg/L) 1841 24 h [9, 15]: 8 mg/L (≈ 3.49 µM); MIC (mg/L) 1841 48 h [9, 16]: 16 mg/L (≈ 6.98 µM); MIC (μmol/L) KN99α 48 h ([10]; KN99α (serotype A, mating type MATα, 48 h)): 7.0 µmol/L (≈ 16 µg/mL); MIC (mg/L) KN99α 24 h [10, 15]: 8 mg/L (≈ 3.49 µM); time-dependent antifungal effect [11]: delayed antifungal effect; damaged cells in SEM [12]: only a small portion showed deep indentations; effect on CFU of C. neoformans strains H99 and KN99α [13]: did not significantly reduce the CFU; MIC at 48 h ([7]; 48 h, forward sequence compared with its scrambled sequence): 7.0 µM (≈ 16 µg/mL); MIC ([7]; strains 1841, H99, and KN99α, 24 h): ≥ 3.5 µM; MIC (μmol/L) H99 24 h ([14]; H99 (serotype A, 24 h)): 7.0 µmol/L (≈ 16 µg/mL); MIC (mg/L) H99 48 h [14, 16]: 8 mg/L (≈ 3.49 µM) |
